Measured values: article PMC10222987 (Viruses, 2023)
Read-outs that look alike come from different tables or passages of the source.

Key:
rgH1N1.WT [1] = details: mouse, in vivo
rgH1N1.PA/I38T [2] = tested on: rgH1N1.PA/I38T; design: species or system BALB/c mice; details: mouse, in vivo
rgH1N1.NA/H275Y [3] = tested on: rgH1N1.NA/H275Y; design: species or system BALB/c mice; details: mouse, in vivo
H1N1pdm09.PA/I38T = tested on: H1N1pdm09.PA/I38T; design: species or system BALB/c mice; details: mouse, in vivo
rgH1N1.PA/I38T [4] = tested on: rgH1N1.PA/I38T; design: species or system BALB/c mice; details: mouse, in vivo; remark: listed apart in the source
[5] = tested on: H1N1pdm09 (A/Osaka/129/2009) PA/I38T; format: cell-based, influenza A virus
rgH3N2.WT = details: hamster, in vivo
rgH3N2.PA/I38T = tested on: rgH3N2.PA/I38T; design: species or system Syrian hamsters; details: hamster, in vivo
rgH1N1.WT [6] = details: mouse, in vivo; remark: listed apart in the source
rgH1N1.PA/I38T [7] = tested on: rgH1N1.PA/I38T; design: species or system BALB/c mice; details: mouse, in vivo; remark: listed apart in the source
rgH1N1.NA/H275Y [8] = tested on: rgH1N1.NA/H275Y; design: species or system BALB/c mice; details: mouse, in vivo; remark: listed apart in the source
[9] = tested on: H1N1 (rgA/WSN/33) NA/H275Y; details: cited from earlier work
[10] = tested on: H1N1 (rgA/WSN/33) PA/I38T; details: cited from earlier work
[11] = tested on: H3N2 (rgA/Victoria/3/75) PA/I38T; details: cited from earlier work
[12] = tested on: H1N1 (rgA/WSN/33) NA/H275Y; details: cited from earlier work; remark: listed apart in the source
[13] = tested on: H1N1 (rgA/WSN/33) PA/I38T; details: cited from earlier work; remark: listed apart in the source
[14] = tested on: H3N2 (rgA/Victoria/3/75) PA/I38T; details: cited from earlier work; remark: listed apart in the source

In the case of `CCOC(=O)C1=C[C@@H](OC(CC)CC)[C@H](NC(C)=O)[C@@H](N)C1` [oseltamivir phosphate], the “Degree of virus titer reduction” value (rgH1N1.WT [1]) is reported as 1.15 log10TCID50/mL, the “Lung virus titers vs vehicle” value (rgH1N1.WT [1]) is reported as “statistically lower compared with vehicle” and the “Lung virus titers vs vehicle” value (rgH1N1.PA/I38T [2]) is reported as “statistically lower compared with vehicle”. For the same molecule, the “Degree of virus titer reduction” value (rgH1N1.NA/H275Y [3]) was 0.38 log10TCID50/mL, the “Lung virus titers vs vehicle” value (rgH1N1.NA/H275Y [3]) was “statistically lower compared with vehicle” and the “Lung virus titers vs vehicle” value (H1N1pdm09.PA/I38T) was “statistically lower compared with vehicle”. The Mean virus titer (rgH1N1.PA/I38T [4]) was 3.17 log10 TCID50/mL.
In the case of `O=C1c2c(O)c(=O)ccn2N([C@@H]2c3ccccc3SCc3c2ccc(F)c3F)[C@@H]2COCCN12` [baloxavir acid], the EC50 [5] is reported as 15.7 nM, the “FC (fold change of EC50 relative to WT)” value [5] is reported as 25.74 fold and the “Antiviral activity vs oseltamivir phosphate (5 mg/kg, twice daily)” value (rgH1N1.WT [1]) is reported as “significantly greater than oseltamivir phosphate”. For the same molecule, the Lung virus titer (rgH1N1.WT [1]) was < 1.5 log10 TCID50/mL, the “Lung virus titers vs vehicle” value (rgH1N1.WT [1]) was “significantly lower than vehicle-treated groups at all doses” and the “Antiviral effect vs oseltamivir phosphate (5 mg/kg, twice daily)” value (rgH1N1.PA/I38T [2]) was “statistically similar”. For the same molecule, the “Lung virus titers vs vehicle” value (rgH1N1.PA/I38T [2]) was “significantly lower than vehicle”, the “Reduction of virus titers compared with vehicle” value (rgH1N1.PA/I38T [2]) was 1.88 log10 TCID50/mL and the “Viral rebound (increase in virus titers after dosing)” value (rgH1N1.PA/I38T [2]) was “did not observe any increase in virus titers”. The “Lung virus titers vs vehicle” value (rgH1N1.PA/I38T [2]; sc, 10 mg/kg) was “significant decrease in virus titers”, the “Antiviral activity vs oseltamivir phosphate” value (rgH1N1.NA/H275Y [3]) was “significantly higher antiviral activity compared with oseltamivir phosphate” and the Lung virus titer (rgH1N1.NA/H275Y [3]) was < 1.5 log10 TCID50/mL. For the same molecule, the “Lung virus titers vs vehicle, time course” value (H1N1pdm09.PA/I38T) was “significantly lower with baloxavir than the vehicle-treated mice”, the “Reduction in lung virus titers vs oseltamivir phosphate (5 mg/kg, twice daily)” value (H1N1pdm09.PA/I38T) was “statistically similar” and the “Viral rebound (increase in virus titers after dosing)” value (H1N1pdm09.PA/I38T) was “did not observe any increase in virus titers”. For the same molecule, the Lung virus titer (H1N1pdm09.PA/I38T; sc, 30 mg/kg) was 1.87 log10TCID50/mL, the “Reduction in virus titers vs vehicle and oseltamivir phosphate” value (rgH3N2.WT) was “significantly higher reduction in virus titers” and the “Reduction in virus titers vs vehicle and oseltamivir phosphate” value (rgH3N2.PA/I38T) was “statistically significant reduction in virus titers”. For the same molecule, the “Inhibitory effect on loss of body weight vs vehicle” value (rgH1N1.WT [6]) was “significant inhibitory effect on loss of body weight”, the “Inhibitory effect on loss of body weight vs vehicle” value (rgH1N1.PA/I38T [7]) was “significant inhibitory effect on loss of body weight” and the “Inhibitory effect on loss of body weight vs oseltamivir phosphate” value (rgH1N1.NA/H275Y [8]) was “significantly greater with baloxavir acid than with oseltamivir phosphate”. The “Inhibitory effect on loss of body weight vs vehicle” value (rgH1N1.NA/H275Y [8]) was “significant inhibitory effect on loss of body weight”, the EC50 [9] was 0.32 nM and the “FC (fold change of EC50 relative to WT)” value [9] was 0.77 fold. The EC50 [10] was 11.4 nM, the “FC (fold change of EC50 relative to WT)” value [10] was 27.24 fold and the EC50 [11] was 63.8 nM. For the same molecule, the “FC (fold change of EC50 relative to WT)” value [11] was 56.59 fold.
For `CCC(CC)O[C@@H]1C=C(C(=O)O)C[C@H](N)[C@H]1NC(C)=O` [oseltamivir acid], the “FC (fold change of IC50 relative to WT)” value [12] is given as 226.12 fold, the IC50 [12] is given as 182 nM and the “FC (fold change of IC50 relative to WT)” value [13] is given as 1.00 fold. The IC50 [13] was 0.8 nM, the “FC (fold change of IC50 relative to WT)” value [14] was 1.21 fold and the IC50 [14] was 0.16 nM.
